Key:
Assay in all cases: -log10 GI50 (growth inhibition 50%) (-log10(M)); higher = more potent growth inhibition
[1] = system: 184A1
Procedure, shortened: (§1)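 Dose-response data came from breast cancer cell lines exposed to each compound for 72 hours at nine doses in 1:5 serial dilution, in triplicate, and read by luminescence relative to a time-zero plate. A Gompertz curve fitted by nonlinear least squares gave GI50, the molar concentration for the set level of growth inhibition, reported as its negative logarithm to base 10. Where a value equals the top dose, it carries a < qualifier.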

[2] = system: 600MPE
Procedure, shortened: as §1

[3] = system: BT474
Procedure, shortened: as §1

[4] = system: BT483
Procedure, shortened: as §1

[5] = system: HCC1428
Procedure, shortened: as §1

[6] = system: HCC1937
Procedure, shortened: as §1

[7] = system: HCC1954
Procedure, shortened: as §1

[8] = system: HCC2185
Procedure, shortened: as §1

[9] = system: HCC3153
Procedure, shortened: as §1

[10] = system: LY2
Procedure, shortened: as §1

[11] = system: MCF7
Procedure, shortened: as §1

[12] = system: MDAMB157
Procedure, shortened: as §1

[13] = system: MDAMB175VII
Procedure, shortened: as §1

[14] = system: MDAMB231
Procedure, shortened: as §1

[15] = system: MDAMB415
Procedure, shortened: as §1

[16] = system: SUM1315MO2
Procedure, shortened: as §1

[17] = system: SUM159PT
Procedure, shortened: as §1

[18] = system: SUM185PE
Procedure, shortened: as §1

[19] = system: SUM225CWN
Procedure, shortened: as §1

[20] = system: T47D
Procedure, shortened: as §1

O=C(/C=C/C#Cc1cccc(NS(=O)(=O)c2ccccc2)c1)NO [Oxamflatin] was tested, and the “-log10 GI50” value [1] was 5.86, the “-log10 GI50” value [2] was 5.53 and the “-log10 GI50” value [3] was 6.57. For the same molecule, the “-log10 GI50” value [4] was 6.27, the “-log10 GI50” value [5] was 6.33 and the “-log10 GI50” value [6] was 5.84. For the same molecule, the “-log10 GI50” value [7] was 5.81, the “-log10 GI50” value [8] was 6.47 and the “-log10 GI50” value [9] was 5.82. For the same molecule, the “-log10 GI50” value [10] was 5.89, the “-log10 GI50” value [11] was 5.74 and the “-log10 GI50” value [12] was 6.13. The “-log10 GI50” value [13] was 5.41, the “-log10 GI50” value [14] was 5.58 and the “-log10 GI50” value [15] was 6.22. The “-log10 GI50” value [16] was 5.64, the “-log10 GI50” value [17] was 6.5 and the “-log10 GI50” value [18] was 6.51. For the same molecule, the “-log10 GI50” value [19] was 6.06 and the “-log10 GI50” value [20] was 6.06.

With O=S(=O)(CC1CS1)c1ccc(Oc2ccccc2)cc1 (stereo not given) [SB-3CT] the “-log10 GI50” value [1] was under 3.78, the “-log10 GI50” value [2] was under 4 and the “-log10 GI50” value [3] was 4.99. The “-log10 GI50” value [4] was 4.59, the “-log10 GI50” value [5] was 4.24 and the “-log10 GI50” value [6] was under 4. The “-log10 GI50” value [7] was under 4, the “-log10 GI50” value [8] was 4.33 and the “-log10 GI50” value [9] was under 4. For the same molecule, the “-log10 GI50” value [10] was under 4, the “-log10 GI50” value [11] was under 4 and the “-log10 GI50” value [12] was under 3.78. For the same molecule, the “-log10 GI50” value [13] was under 4, the “-log10 GI50” value [14] was under 3.78 and the “-log10 GI50” value [15] was 4.77. For the same molecule, the “-log10 GI50” value [16] was 4.02, the “-log10 GI50” value [17] was 4.85 and the “-log10 GI50” value [18] was 4.75. The “-log10 GI50” value [19] was under 4 and the “-log10 GI50” value [20] was under 4.

With CCN(CC)CCNC(=O)c1c(C)[nH]c(/C=C2\C(=O)Nc3ccc(F)cc32)c1C [Sunitinib malate] the “-log10 GI50” value [1] was 5.37, the “-log10 GI50” value [2] was 5.4 and the “-log10 GI50” value [3] was 4.78. The “-log10 GI50” value [4] was 4.73, the “-log10 GI50” value [5] was 5.29 and the “-log10 GI50” value [6] was 5.16. The “-log10 GI50” value [7] was 5.26, the “-log10 GI50” value [8] was 4.7 and the “-log10 GI50” value [9] was 4.96. For the same molecule, the “-log10 GI50” value [10] was 5.14, the “-log10 GI50” value [11] was 5.23 and the “-log10 GI50” value [12] was 5.21. For the same molecule, the “-log10 GI50” value [13] was 5.18, the “-log10 GI50” value [14] was 5.44 and the “-log10 GI50” value [15] was 5.25. The “-log10 GI50” value [16] was 5.12, the “-log10 GI50” value [17] was 5.81 and the “-log10 GI50” value [18] was 5.98. For the same molecule, the “-log10 GI50” value [19] was 5.21 and the “-log10 GI50” value [20] was 4.94.

N#Cc1c(-c2ccccc2)cc(-c2cc(Br)ccc2O)[nH]c1=O [TCS PIM-11] was tested, and the “-log10 GI50” value [1] was 5.16, the “-log10 GI50” value [2] was under 3.88 and the “-log10 GI50” value [3] was under 3.88. For the same molecule, the “-log10 GI50” value [4] was under 3.88, the “-log10 GI50” value [5] was 4.09 and the “-log10 GI50” value [6] was under 3.88. The “-log10 GI50” value [7] was 4.52, the “-log10 GI50” value [8] was 4.33 and the “-log10 GI50” value [9] was under 3.88. For the same molecule, the “-log10 GI50” value [10] was under 3.88, the “-log10 GI50” value [11] was under 3.88 and the “-log10 GI50” value [12] was under 3.88. The “-log10 GI50” value [13] was under 3.88, the “-log10 GI50” value [14] was under 3.88 and the “-log10 GI50” value [15] was under 3.88. The “-log10 GI50” value [16] was 4.75, the “-log10 GI50” value [17] was 4.46 and the “-log10 GI50” value [18] was 4.67. The “-log10 GI50” value [19] was 4.53 and the “-log10 GI50” value [20] was under 4.18.

For CC(/C=C/C(=O)NO)=C\[C@@H](C)C(=O)c1ccc(N(C)C)cc1 [Trichostatin A], the “-log10 GI50” value [1] was 4.73, the “-log10 GI50” value [2] was 5.19 and the “-log10 GI50” value [3] was 5.01. The “-log10 GI50” value [4] was 5, the “-log10 GI50” value [5] was 5.73 and the “-log10 GI50” value [6] was 4.82. For the same molecule, the “-log10 GI50” value [7] was 4.96, the “-log10 GI50” value [8] was 4.79 and the “-log10 GI50” value [9] was 4.62. The “-log10 GI50” value [10] was 4.99, the “-log10 GI50” value [11] was 5.18 and the “-log10 GI50” value [12] was 4.68. For the same molecule, the “-log10 GI50” value [13] was 5.3, the “-log10 GI50” value [14] was 5.26 and the “-log10 GI50” value [15] was 4.73. The “-log10 GI50” value [16] was 4.31, the “-log10 GI50” value [17] was 5.23 and the “-log10 GI50” value [18] was 4.76. For the same molecule, the “-log10 GI50” value [19] was 4.86 and the “-log10 GI50” value [20] was 5.46.

With Cc1cc(Nc2cc(N3CCN(C)CC3)nc(Sc3ccc(NC(=O)C4CC4)cc3)n2)n[nH]1 [VX-680] the “-log10 GI50” value [1] was 5.64, the “-log10 GI50” value [2] was 5.06 and the “-log10 GI50” value [3] was 4.84. The “-log10 GI50” value [4] was 5.44, the “-log10 GI50” value [5] was 5.11 and the “-log10 GI50” value [6] was 5.1. For the same molecule, the “-log10 GI50” value [7] was 5.32, the “-log10 GI50” value [8] was 6.48 and the “-log10 GI50” value [9] was 4.72. The “-log10 GI50” value [10] was 5.21, the “-log10 GI50” value [11] was 5.08 and the “-log10 GI50” value [12] was 5.43. For the same molecule, the “-log10 GI50” value [13] was 4.72, the “-log10 GI50” value [14] was 4.95 and the “-log10 GI50” value [15] was 5.58. For the same molecule, the “-log10 GI50” value [16] was 5.8, the “-log10 GI50” value [17] was 6.47 and the “-log10 GI50” value [18] was 5.62. The “-log10 GI50” value [19] was 4.76 and the “-log10 GI50” value [20] was 5.03.

In the case of CCCC(CCC)C(=O)O [Valproic acid], the “-log10 GI50” value [1] is reported as 3, the “-log10 GI50” value [2] is reported as 2.52 and the “-log10 GI50” value [3] is reported as 3.03. The “-log10 GI50” value [4] was 3.01, the “-log10 GI50” value [5] was 3.13 and the “-log10 GI50” value [6] was 2.56. The “-log10 GI50” value [7] was 2.52, the “-log10 GI50” value [8] was 2.88 and the “-log10 GI50” value [9] was 2.55. For the same molecule, the “-log10 GI50” value [10] was 2.96, the “-log10 GI50” value [11] was 2.64 and the “-log10 GI50” value [12] was 2.68. The “-log10 GI50” value [13] was 2.96, the “-log10 GI50” value [14] was 2.16 and the “-log10 GI50” value [15] was 3.06. For the same molecule, the “-log10 GI50” value [16] was 2.62, the “-log10 GI50” value [17] was 2.91 and the “-log10 GI50” value [18] was 2.84. The “-log10 GI50” value [19] was 2.76 and the “-log10 GI50” value [20] was 2.53.

— the supplement of paper PMC3937590
